Measured values reported in patent publication US20240270741A1 (Cogent Biosciences, Inc., priority 2023, published 2024).

Target: FGFR2 (Homo sapiens, UniProt P21802)
Test: FGFR wild type enzyme assay (HTRF KinEASE-TK), FGFR2
Settings: Enz FGFR2 (nM), FGFR2 wild type enzyme assay
Experimental: Activity against FGFR wild type and mutant enzymes were determined in biochemical assays using purified intracellular domains of the respective isoforms using HTRF KinEASE-TK assay technology from CisBio, now PerkinElmer. (Catalogue number 62TK0PEC). Briefly test compounds were tested in 11 point 1:3 serial dilutions, typical final concentration ranges from 10,000 nM to 0.17 nM. Test compounds were dissolved in DMSO and added to assay plates using acoustic transfer. Enzyme was pre-incubated with test compound for 30 minutes and the assay was initiated by addition of ATP and TK-peptide substrate. After 60 minutes at room temperature the reaction was quenched with detection reagent and incubated for an additional 60 minutes at room temperature. The plates were read using a multimode reader and the emission ratio of 665 nm to 615 nm was determined. This ratio was converted to percent of control (POC). [1-(high control-sample signal)/(high control-low control)]*100. Wells without compound were used to determine high control values and wells without enzyme were used to determine low control values. The POC values were fit using a four-parameter logistic model and the value where the fit curve was equal to 50 POC was reported as the IC50 using the Signals Vitro Vivo software package (PerkinElmer). Final assay conditions were: 50 mM HEPES pH7.5, 10 mM MgCl2, 1 mM EDTA, 0.01% Brij-35, 2 mM MnCl2, 1 mM DTT, and 0.5 uM TK-peptide.

FGFR2, sequence (P21802 399-821 limits assumed): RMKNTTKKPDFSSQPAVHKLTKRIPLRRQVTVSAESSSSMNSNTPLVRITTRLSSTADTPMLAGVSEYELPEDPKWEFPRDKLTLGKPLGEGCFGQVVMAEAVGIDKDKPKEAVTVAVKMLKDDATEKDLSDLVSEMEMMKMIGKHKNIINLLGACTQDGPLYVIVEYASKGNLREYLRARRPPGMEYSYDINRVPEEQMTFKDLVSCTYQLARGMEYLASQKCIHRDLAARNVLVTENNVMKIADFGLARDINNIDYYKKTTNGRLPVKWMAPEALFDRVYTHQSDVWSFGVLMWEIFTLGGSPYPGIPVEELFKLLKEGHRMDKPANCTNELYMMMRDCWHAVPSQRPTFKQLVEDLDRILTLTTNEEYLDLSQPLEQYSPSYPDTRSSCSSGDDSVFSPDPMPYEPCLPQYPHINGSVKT

| SMILES | IC50 |
| --- | --- |
| Cn1ncc(-c2cc(Sc3ncccc3F)c3c(C#N)cnn3c2)c1N [Example 545, 6-(5-amino-1-methyl-pyrazol-4-yl)-4-[(3-fluoro-2-pyridyl)sulfanyl]pyrazolo[1,5-a]pyridine-3-carbonitrile] | 3 nM |
| N#Cc1cc(F)ccc1Sc1cc(-c2cnn(-c3cn[nH]c3)c2)cn2ncc(C#N)c12 [Example 546, 6-(1′H-[1,4′-bipyrazol]-4-yl)-4-((2-cyano-4-fluorophenyl)thio)pyrazolo [1,5-a]pyridine-3-carbonitrile] | 6 nM |
| Cc1c(-c2cc(Sc3ccc(F)cc3C#N)c3c(C#N)cnn3c2)cnn1C1CCOC1 (stereo not drawn) [Example 547, 4-((2-cyano-4-fluorophenyl)thio)-6-(5-methyl-1-(tetrahydrofuran-3-yl)-1H-pyrazol-4-yl)pyrazolo[1,5-a]pyridine-3-carbonitrile] | 3 nM |
| N#Cc1ccccc1Sc1cc(-c2ccc(N3CCC(O)CC3)nc2)cn2ncc(C#N)c12 [Example 548, 4-((2-cyanophenyl)thio)-6-(6-(4-hydroxypiperidin-1-yl)pyridin-3-yl)pyrazolo[1,5-a]pyridine-3-carbonitrile] | 0.4 nM |
| N#Cc1ccccc1Sc1cc(-c2ccc(N3CCCC3)nc2)cn2ncc(C#N)c12 [Example 549, 4-((2-cyanophenyl)thio)-6-(6-(pyrrolidin-1-yl)pyridin-3-yl)pyrazolo[1,5-a]pyridine-3-carbonitrile] | 1 nM |
| N#Cc1cnn2cc(-c3ccc(N4CC[C@H](O)C4)nc3)cc(Sc3ncccc3F)c12 [Example 550, (S)-4-((3-fluoropyridin-2-yl)thio)-6-(6-(3-hydroxypryrrolidin-1-yl)pyridin-3-yl)pyrazolo[1,5-a]pyridine-3-carbonitrile] | 1.5 nM |
| N#Cc1cnn2cc(-c3ccc(N4CC[C@@H](O)C4)nc3)cc(Sc3ncccc3F)c12 [Example 551, (R)-4-((3-fluoropyridin-2-yl)thio)-6-(6-(3-hydroxypyrrolidin-1-yl)pyridin-3-yl)pyrazolo[1,5-a]pyridine-3-carbonitrile] | 2 nM |
| N#Cc1cnn2cc(-c3ccc(N4CCC(O)CC4)nc3)cc(Sc3ncccc3F)c12 [Example 552, 4-((3-fluoropyridin-2-yl)thio)-6-(6-(4-hydroxypiperidin-1-yl)pyridin-3-yl)pyrazolo[1,5-a]pyridine-3-carbonitrile] | 1 nM |
| N#Cc1cnn2cc(-c3ccc(N4CCNCC4)nc3)cc(Sc3ncccc3F)c12 [Example 553, 4-((3-fluoropyridin-2-yl)thio)-6-(6-(piperazin-1-yl)pyridin-3-yl)pyrazolo[1,5-a]pyridine-3-carbonitrile] | 1 nM |
| N#Cc1cnn2cc(-c3ccc(N4CCCC4)nc3)cc(Sc3ncccc3F)c12 [Example 554, 4-((3-fluoropyridin-2-yl)thio)-6-(6-(pyrrolidin-1-yl)pyridin-3-yl)pyrazolo[1,5-a]pyridine-3-carbonitrile] | 2 nM |
| CC(=O)N1CCN(c2ccc(-c3cc(Sc4ncccc4F)c4c(C#N)cnn4c3)cn2)CC1 [Example 555, 6-(6-(4-acetylpiperazin-1-yl)pyridin-3-yl)-4-((3-fluoropyridin-2-yl)thio)pyrazolo[1,5-a]pyridine-3-carbontrile] | 1 nM |
| Cc1c(-c2cc(Sc3ccccc3C#N)c3c(C#N)cnn3c2)cnn1C1CCN(C#N)CC1 [Example 556, 4-((2-cyanophenyl)thio)-6-(1-(1-cyanopiperidin-4-yl)-5-methyl-1H-pyrazol-4-yl)pyrazolo[1,5-a]pyridine-3-carbonitrile] | 1 nM |
| Cc1c(-c2cc(Sc3ncccc3F)c3c(C#N)cnn3c2)cnn1C1CCN(C#N)CC1 [Example 557] | 2 nM |
| Cn1cc(-c2cc(Sc3ccc(F)cc3C#N)c3c(C#N)cnn3c2)cn1 [Example 558, 4-((2-cyano-4-fluorophenyl)thio)-6-(1-methyl-1H-pyrazol-4-yl)pyrazolo[1,5-a]pyridine-3-carbonitrile] | 2 nM |
| N#Cc1cc(F)ccc1Sc1cc(-c2ccc(N3CCCC3)nc2)cn2ncc(C#N)c12 [Example 559, 4-((2-cyano-4-fluorophenyl)thio)-6-(6-(pyrrolidin-1-yl)pyridin-3-yl)pyrazolo[1,5-a]pyridine-3-carbonitrile] | 1 nM |
| CN1CCN(c2ccc(-c3cc(Sc4ccc(F)cc4C#N)c4c(C#N)cnn4c3)cn2)CC1 [Example 560, 4-((2-cyano-4-fluorophenyl)thio)-6-(6-(4-methylpiperazin-1-yl)pyridin-3-yl)pyrazolo[1,5-a]pyridine-3-carbonitrile] | 1 nM |

Results, then the compound that gave them:

| IC50 | SMILES |
| --- | --- |
| 7 nM | Cc1c(-c2cc(Sc3ccc(F)cc3C#N)c3c(C#N)cnn3c2)cnn1C[C@@H](O)CO [Example 561, (R)-4-((2-cyano-4-fluorophenyl)thio)-6-(1-(2,3-dihydroxypropyl)-5-methyl-1H-pyrazol-4-yl)pyrazolo[1,5-a]pyridine-3-carbonitrile] |
| 1 nM | CC(=O)NC1CCN(c2ccc(-c3cc(Sc4ccccc4C#N)c4c(C#N)cnn4c3)cn2)C1 (stereo not drawn) [Example 562, N-(1-(5-(3-cyano-4-((2-cyanophenyl)thio)pyrazolo [1,5-a]pyridin-6-yl)pyridin-2-yl)pyrrolidin-3-yl)acetamide] |
| 1 nM | C[C@@H](O)C(=O)N1CCC[C@@H](n2cc(-c3cc(Sc4ccccc4C#N)c4c(C#N)cnn4c3)cn2)C1 [Example 563, 4-((2-cyanophenyl)thio)-6-(1-((R)-1-((R)-2-hydroxypropanoyl)piperidin-3-yl)-1H-pyrazol-4-yl)pyrazolo[1,5-a]pyridine-3-carbonitrile] |
| 0.5 nM | CO[C@@H](C)C(=O)N1CCC(n2cc(-c3cc(Sc4ccccc4C#N)c4c(C#N)cnn4c3)cn2)CC1 [Example 564, (S)-4-((2-cyanophenyl)thio)-6-(1-(1-(2-methoxypropanoyl)piperidin-4-yl)-1H-pyrazol-4-yl)pyrazolo[1,5-a]pyridine-3-carbonitrile] |
| 0.5 nM | CO[C@H](C)C(=O)N1CCC(n2cc(-c3cc(Sc4ccccc4C#N)c4c(C#N)cnn4c3)cn2)CC1 [Example 565, (R)-4-((2-cyanophenyl)thio)-6-(1-(1-(2-methoxypropanoyl)piperidin-4-yl)-1H-pyrazol-4-yl)pyrazolo[1,5-a]pyridine-3-carbonitrile] |
| 2 nM | N#Cc1ccccc1Sc1cc(-c2cnn(CCO)c2)cn2ncc(C#N)c12 [Example 566, 4-((2-cyanophenyl)thio)-6-(1-(2-hydroxyethyl)-1H-pyrazol-4-yl)pyrazolo[1,5-a]pyridine-3-carbonitrile] |
| 1 nM | C[C@@H](O)Cn1cc(-c2cc(Sc3ccccc3C#N)c3c(C#N)cnn3c2)cn1 [Example 567, (R)-4-((2-cyanophenyl)thio)-6-(1-(2-hydroxypropyl)-1H-pyrazol-4-yl)pyrazolo[1,5-a]pyridine-3-carbonitrile] |
| 1 nM | C[C@H](O)Cn1cc(-c2cc(Sc3ccccc3C#N)c3c(C#N)cnn3c2)cn1 [Example 568, (S)-4-((2-cyanophenyl)thio)-6-(1-(2-hydroxypropyl)-1H-pyrazol-4-yl)pyrazolo[1,5-a]pyridine-3-carbonitrile] |
| 2 nM | N#Cc1ccccc1Sc1cc(-c2cn[nH]c2)cn2ncc(C#N)c12 [Example 569, 4-((2-cyanophenyl)thio)-6-(1H-pyrazol-4-yl)pyrazolo[1,5-a]pyridine-3-carbonitrile] |
| 1 nM | C[C@H](O)CCn1cc(-c2cc(Sc3ccccc3C#N)c3c(C#N)cnn3c2)cn1 [Example 570] |
| 1 nM | C[C@@H](O)CCn1cc(-c2cc(Sc3ccccc3C#N)c3c(C#N)cnn3c2)cn1 [Example 571, (R)-4-((2-cyanophenyl)thio)-6-(1-(3-hydroxybutyl)-1H-pyrazol-4-yl)pyrazolo[1,5-a]pyridine-3-carbonitrile] |
| 1 nM | CCn1cc(-c2cc(Sc3ccccc3C#N)c3c(C#N)cnn3c2)cn1 [Example 572, 4-((2-cyanophenyl)thio)-6-(1-ethyl-1H-pyrazol-4-yl)pyrazolo[1,5-a]pyridine-3-carbonitrile] |
| 4 nM | N#Cc1ccccc1Sc1cc(-c2cnn(CC(=O)O)c2)cn2ncc(C#N)c12 [Example 573, 2-(4-(3-cyano-4-((2-cyanophenyl)thio)pyrazolo [1,5-a]pyridin-6-yl)-1H-pyrazol-1-yl)acetic acid] |
| 1 nM | CC(=O)N[C@H]1CC[C@H](n2cc(-c3cc(Sc4ccccc4C#N)c4c(C#N)cnn4c3)cn2)CC1 [Example 574, N-((1r,4r)-4-(4-(3-cyano-4-((2-cyanophenyl)thio)pyrazolo [1,5-a]pyridin-6-yl)-1H-pyrazol-1-yl)cyclohexyl)acetamide] |
| 5 nM | CNc1ccc(-c2cc(Sc3ccc(F)cc3C#N)c3c(C#N)cnn3c2)cn1 [Example 575, 4-((2-cyano-4-fluorophenyl)thio)-6-(6-(methylamino)pyridin-3-yl)pyrazolo[1,5-a]pryidine-3-carbonitrile] |
| 7 nM | Cc1cccc(Sc2cc(-c3cnn(C)c3)cn3ncc(C#N)c23)c1C#N [Example 576, 4-((2-cyano-3-methylphenyl)thio)-6-(1-methyl-1H-pyrazol-4-yl)pyrazolo[1,5-a]pyridine-3-carbonitrile] |
| 7 nM | N#Cc1cnn2cc(-c3cn([C@H]4CCCNC4)nc3F)cc(Sc3ncccc3F)c12 [Example 577, (S)-6-(3-fluoro-1-(piperidin-3-yl)-1H-pyrazol-4-yl)-4-((3-fluoropyridin-2-yl)thio)pyrazolo[1,5-a]pyridine-3-carbonitrile] |
| 2 nM | CC(C)(CO)n1cc(-c2cc(Sc3ccccc3C#N)c3c(C#N)cnn3c2)cn1 [Example 578, 4-((2-cyanophenyl)thio)-6-(1-(1-hydroxy-2-methylpropan-2-yl)-1H-pyrazol-4-yl)pyrazolo[1,5-a]pyridine-3-carbonitrile] |
| 1.5 nM | CO[C@H]1CC[C@H](n2ncc(-c3cc(Sc4ccc(F)cc4C#N)c4c(C#N)cnn4c3)c2C)CC1 [Example 579, 4-((2-cyano-4-fluorophenyl)thio)-6-(1-((1r,4r)-4-methoxycyclohexyl)-5-methyl-1H-pyrazol-4-yl)pyrazolo[1,5-a]pyridine-3-carbonitrile] |
| 1 nM | CN(C)c1ccc(-c2cc(Sc3ccccc3C#N)c3c(C#N)cnn3c2)cn1 [Example 580, 4-((2-cyanophenyl)thio)-6-(6-(dimethylamino)pyridin-3-yl)pyrazolo[1,5-a]pyridine-3-carbonitrile] |
